Data on six molecules can be found in paper PMC13288645, “A cryopreserved and in vivo-in vitro validated human induced pluripotent stem cell blood-brain barrier model for reliable neurotoxicity assessment” (NAM journal, 2025).

Several values for one entry are separate records, joined by “and”; a condition that tells them apart may be missing. Equal values may be shown once.

The subject of series [1] is BBB. The note with it: cited from earlier work; for In vivo human rate constant for compound transfer from blood across the BBB into brain (K1): human clinical PET, ref Ghazanfari et al. 2024, Le Roux et al. 2019.
The next series in a line: in vitro. The following applies: human. From the text: All human iPSC-derived blood-brain barrier cells (Brain Microvascular Endothelial Cells (BMECs), Astrocytes and Pericytes (AP)), media (BMEC maintenance medium and AP medium), and media supplements (plating supplement 500X) have been purchased from Fujifilm Cellular Dynamics Inc. (FCDI, Madison, WI, US, catalogue: R1241). The respective certificates of analysis, including cell characterization data, can be accessed in Supplementary Data File 1. All cells were derived from the same proprietary donor. […] All additional experiments included 96-transwell® membranes only. […] BMEC maintenance medium contained only 1 % P/S without supplements. Unless stated differently, transwell® compartment volumes were used as recommended by Corning including 75 µL apically and 235 µL basolaterally for 96-transwells® as well as 300 µL apically and 1000 µL basolaterally for 24-transwells®.
On day −2, 24-transwells® were coated apically with Collagen IV-Fibronectin coating solution and stored overnight at 4 °C (Fig. 1A). In contrast, 96-transwells® were first flipped upside down, and coated with 50 µL Fibronectin-Collagen IV solution on the basolateral side for 4 h at 37 °C and 5 % CO2 and stored overnight at 4 °C (Fig. 1B). On day −1, 24-transwells® were flipped upside down and coated with 100 µL of a 0.1 % Gelatin solution for 0.5 h at room temperature (RT) before replacement with 100 µL of the AP seeding solution containing 1.1 × 10^6 astrocytes/mL and 2.2 × 10^6 pericytes/mL in AP plating medium. After seeding, cells were incubated to attach for 4 h at 37 °C and 5 % CO2 and then flipped back to normal orientation. […] In both cases, Collagen IV-Fibronectin coating solution was replaced with AP plating medium. […] Here, cells were incubated to attach for 4 h at 37 °C and 5 % CO2 before flipping the transwells® slowly back to normal orientation. To inspect the cell layers for obvious leakages or cell detachment, blank transwell® filters and fully assembled models were observed under a Zeiss Primovert microscope (Carl Zeiss Microscopy GmbH, Jena, Germany) (Supplementary Figure 1). On day 1, BMEC plating medium was replaced by BMEC maintenance medium. After 24 h at 37 °C and 5 % CO2 barrier integrity was evaluated to consider only highly restrictive BBB models for pharmaceutical permeability testing.
After 60 min at 37 °C, 5 % CO2 and 100 rpm shaking on an orbital shaker, 50 µL were sampled from the donor and acceptor (containing APs) compartment. Following a transfer to 96-well plates, samples were diluted 1:1 with 50 µL of DPBS.
With cac being the analyte concentration in the acceptor compartment (µM), t the duration of the incubation (s, here 3 600 s), A the surface area of the respective transwell® membrane (cm^2), Vac the volume of the acceptor compartment (mL) and cdc the applied concentration in the donor compartment (µM). Papp was reported as the average of triplicate 24-transwell® models and six 96-transwell® model replicates.
Additional compound data, including final solvent concentrations and physicochemical properties, were summarized in Supplementary Table 1. After 60 min at 37 °C, 5 % CO2 and 100 rpm shaking on an orbital shaker, 50 µL were sampled from the acceptor and donor compartments of quadruplicate BBB models as well as cell-free controls.
Then, all samples were subject to protein precipitation with acetonitrile:methanol 50:50 (v/v). After centrifugation for 10 min at 10 000 × g, supernatants were transferred to new vials and subsequently evaporated to dryness. […] Derivatization was executed in a ThermoMixer C (Eppendorf, Hamburg, Germany) at 65 °C and 600 rpm for 15 min. After evaporating samples to dryness again, final reconstitution was performed as described above.

Series [2] relates to hiPSC-derived blood-brain barrier model. The note with it: human.
For series [3] the test system is unchanged. Briefly: Bioavailable radioactivity of [benzyl-14C]-Deltamethrin in the transwell media by liquid scintillation counting. The note with it: 1h, per replicate, listed as [benzyl-14C]-Deltamethrin.
Series [4] deals with BBB. Kind of series: Prediction of human in vivo K1 from in vitro Papp with the linear model.
Another series concerns rats. The following applies: oral dosing, ref Amaraneni et al., 2016, Kim et al., 2008, 2007; cited from earlier work.
A further series deals with hiPSC-derived BBB. Also noted: method as in Le Roux et al., 2019. The note with it: high in vitro permeability not confirmed by this study; ref Le Roux et al., 2019; cited from earlier work.
The conditions of series [5]: source not stated; cited from earlier work.
Where [6] appears, read: In vitro hiPSC-derived blood-brain barrier model apparent permeability (Papp).
Where [7] appears, read: male, in vitro apparent permeability Papp.
Where [8] appears, read: male, in vitro apparent permeability Papp, 96-transwell hiPSC-derived BBB, 60 min, 5 µM (17β-Estradiol 10 µM, Deltamethrin 3 µM).

Usually Papp stands for the rate of passage across a membrane or cell layer, normalised by area and donor concentration. For `C[C@]12CC[C@@H]3c4ccc(O)cc4CC[C@H]3[C@@H]1CC[C@@H]2O` [17β-Estradiol], the “In vivo human rate constant for compound transfer from blood across the BBB into brain (K1)” value (“In vivo human rate constant” below) with BBB [1] was 0.24 mL min^-1 cm^-3. Also, the “human in vivo permeability K1 (elevated)” value in the series with BBB [1] (human, ref Delforge et al., 1995, Le Roux et al., 2019, Zubieta et al., 2000) is recorded as greater than 0.1 mL cm^-3 min^-1. The Papp at 60 min in “in vitro” (setting [6]) is 16.9 ×10⁻⁶ cm/s; in the series “in vitro” (setting [7]) it was greater than 15 ×10⁻⁶ cm/s.

For the molecule `CC1(C)[C@H](C(=O)O[C@H](C#N)c2cccc(Oc3ccccc3)c2)[C@@H]1C=C(Br)Br` [Deltamethrin], the “Bioavailable [benzyl-14C]-Deltamethrin” value in series [2] is reported as 786.44 Bq. The “Radioactivity Sample apical” value in series [3] (BBB model, acceptor compartment) was 1.40 Bq and 1.53 Bq and 1.70 Bq and 2.08 Bq. For the same molecule, the “Radioactivity Sample basolateral” value in series [3] (BBB model, donor compartment) is 737.12 Bq and 789.28 Bq and 793.66 Bq and 818.98 Bq. Further, in series [3] (cell-free control transwell with compound, acceptor compartment), the “Radioactivity Blank apical” value is 3.00 Bq and 3.65 Bq and 3.95 Bq and 2.93 Bq. Besides, the “Radioactivity Blank basolateral” value in series [3] (cell-free control transwell with compound, donor compartment) is 762.65 Bq and 864.27 Bq and 830.94 Bq and 846.43 Bq. The Papp at 60 min in “in vitro” (setting [7]) came to 0.979 ×10⁻⁶ cm/s. Further, the “predicted in vivo K1” value in the series on BBB [4] (after insertion of Papp into the linear model) is −0.099 mL cm^-3 min^-1. Further, in the series with BBB [4] (human in vivo K1 predicted from in vitro Papp with the linear model), the “Prediction of K1” value is on record as -0.099 mL min^-1 cm^-3. Moreover, the “brain entry and neurotoxic effects in rats” value in the series with rats is “entered the brain and exhibited neurotoxic effects only after 10 mg/kg oral dosing”.

Take `C#Cc1cccc(Nc2ncnc3cc(OCCOC)c(OCCOC)cc23)c1` [Erlotinib]: the “In vivo human rate constant” value in the series on BBB [1] is given as 0.02 mL min^-1 cm^-3. In addition, the “in vitro permeability Papp in previous hiPSC-derived BBB results” value with hiPSC-derived BBB is > 15 × 10^–6 cm/s. Also, the Papp at 60 min in the series “in vitro” (male) is 12.1 ×10⁻⁶ cm/s; in “in vitro” (setting [8]) it was less than 15 ×10⁻⁶ cm/s.

By LogP is commonly meant the decadic logarithm of the partition coefficient of the neutral form, usually between octanol and water. Turning to `CCOC(=O)c1ncn2c1CN(C)C(=O)c1cc(F)ccc1-2` [Flumazenil], the LogP in series [5] is 1.9.

For `CN(C)C(=O)C(CCN1CCC(O)(c2ccc(Cl)cc2)CC1)(c1ccccc1)c1ccccc1` [Loperamide], the “In vivo human rate constant” value in the series with BBB [1] was 0.002 mL min^-1 cm^-3. In the series on BBB [1] (human, ref Bauer et al., 2015, Traxl et al.), the “human in vivo K1 (clinically shown to enter the human brain relatively poorly)” value was less than 0.05 mL cm^-3 min^-1. Besides, the results for the Papp at 60 min in “in vitro” (male) and in the series “in vitro” (setting [8]) were 6.75 ×10⁻⁶ cm/s and less than 15 ×10⁻⁶ cm/s, respectively. In addition, the LogP in series [5] is on record as 5.13.

Regarding `CCN1CCC[C@H]1CNC(=O)c1c(O)c(Cl)cc(Cl)c1OC` [Raclopride], the “In vivo human rate constant” value with BBB [1] is on record as 0.09 mL min^-1 cm^-3. For the same molecule, the Papp at 60 min in “in vitro” (setting [6]) is 16.8 ×10⁻⁶ cm/s; in “in vitro” (setting [7]), greater than 15 ×10⁻⁶ cm/s.
